Peptide text beside a SMILES is read from it. A value given as a limit tells only on which side of the number the result lay.

Experiment in all cases: HDAC Enzyme Activity Assay
What all share (details): pH 8; 37 °C

The target of assay [1] is Histone deacetylase 1 (Homo sapiens, UniProt Q13547).
Assay [2] deals with Histone deacetylase 4 (Homo sapiens, UniProt P56524).
In assay [3] the target is T1, Histone deacetylase 6 (Mus musculus, UniProt Q9Z2V5).
T1 sequence (Q9Z2V5 whole entry): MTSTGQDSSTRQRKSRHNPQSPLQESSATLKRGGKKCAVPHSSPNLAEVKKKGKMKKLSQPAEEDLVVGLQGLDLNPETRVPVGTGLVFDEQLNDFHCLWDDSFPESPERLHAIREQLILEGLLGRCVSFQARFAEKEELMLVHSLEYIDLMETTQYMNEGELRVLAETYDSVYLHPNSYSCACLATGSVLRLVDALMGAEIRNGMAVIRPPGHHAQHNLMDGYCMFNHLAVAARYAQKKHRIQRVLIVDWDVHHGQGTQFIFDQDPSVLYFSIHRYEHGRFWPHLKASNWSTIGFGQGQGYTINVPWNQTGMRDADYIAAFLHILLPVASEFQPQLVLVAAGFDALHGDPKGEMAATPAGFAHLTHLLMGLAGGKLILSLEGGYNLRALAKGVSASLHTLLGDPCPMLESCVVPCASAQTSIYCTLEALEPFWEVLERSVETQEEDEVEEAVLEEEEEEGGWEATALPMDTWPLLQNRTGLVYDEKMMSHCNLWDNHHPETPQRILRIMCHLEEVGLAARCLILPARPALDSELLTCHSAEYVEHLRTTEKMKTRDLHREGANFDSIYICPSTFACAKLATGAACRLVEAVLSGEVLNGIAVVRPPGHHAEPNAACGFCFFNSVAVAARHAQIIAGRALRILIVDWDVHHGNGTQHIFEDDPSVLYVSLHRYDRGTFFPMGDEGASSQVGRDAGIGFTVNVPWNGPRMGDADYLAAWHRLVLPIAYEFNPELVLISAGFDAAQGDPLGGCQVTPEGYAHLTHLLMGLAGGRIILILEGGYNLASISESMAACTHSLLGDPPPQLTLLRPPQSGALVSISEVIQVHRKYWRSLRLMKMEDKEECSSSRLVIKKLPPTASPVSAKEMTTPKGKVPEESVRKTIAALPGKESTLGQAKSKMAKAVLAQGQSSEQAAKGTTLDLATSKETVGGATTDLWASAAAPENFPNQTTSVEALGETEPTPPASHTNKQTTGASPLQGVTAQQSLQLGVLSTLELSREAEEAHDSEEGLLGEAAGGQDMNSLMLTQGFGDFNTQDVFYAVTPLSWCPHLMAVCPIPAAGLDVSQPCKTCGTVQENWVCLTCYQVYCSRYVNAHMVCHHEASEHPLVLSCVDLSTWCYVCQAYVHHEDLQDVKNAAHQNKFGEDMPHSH

Sequence of Histone deacetylase 4 (P56524 whole entry): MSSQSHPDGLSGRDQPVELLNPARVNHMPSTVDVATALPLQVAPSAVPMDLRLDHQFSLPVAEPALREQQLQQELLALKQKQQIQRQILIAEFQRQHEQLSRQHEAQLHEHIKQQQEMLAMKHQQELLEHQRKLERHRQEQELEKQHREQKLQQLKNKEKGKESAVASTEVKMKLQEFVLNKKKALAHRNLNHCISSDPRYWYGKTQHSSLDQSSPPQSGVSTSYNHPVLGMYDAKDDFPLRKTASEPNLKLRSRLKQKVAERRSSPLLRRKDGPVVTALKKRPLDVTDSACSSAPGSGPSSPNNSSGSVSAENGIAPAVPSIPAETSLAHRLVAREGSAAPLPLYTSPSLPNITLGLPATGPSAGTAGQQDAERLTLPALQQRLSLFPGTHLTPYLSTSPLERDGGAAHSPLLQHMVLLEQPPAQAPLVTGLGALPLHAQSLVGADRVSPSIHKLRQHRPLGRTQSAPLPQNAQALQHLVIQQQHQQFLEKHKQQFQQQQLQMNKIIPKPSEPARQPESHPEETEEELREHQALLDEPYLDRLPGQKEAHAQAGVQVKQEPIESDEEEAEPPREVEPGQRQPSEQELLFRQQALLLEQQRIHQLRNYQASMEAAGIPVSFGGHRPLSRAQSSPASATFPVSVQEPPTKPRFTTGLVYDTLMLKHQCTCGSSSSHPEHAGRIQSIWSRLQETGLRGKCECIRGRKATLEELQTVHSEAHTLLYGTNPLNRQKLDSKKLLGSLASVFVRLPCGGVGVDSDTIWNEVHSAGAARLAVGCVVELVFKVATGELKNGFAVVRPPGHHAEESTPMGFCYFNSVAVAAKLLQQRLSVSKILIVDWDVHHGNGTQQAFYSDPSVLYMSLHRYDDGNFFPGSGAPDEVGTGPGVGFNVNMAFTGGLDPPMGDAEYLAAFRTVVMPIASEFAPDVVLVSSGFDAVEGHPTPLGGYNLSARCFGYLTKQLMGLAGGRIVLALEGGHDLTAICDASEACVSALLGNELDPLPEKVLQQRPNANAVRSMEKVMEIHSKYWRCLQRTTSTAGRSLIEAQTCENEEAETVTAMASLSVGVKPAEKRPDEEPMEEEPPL
Sequence of Histone deacetylase 1 (Q13547 whole entry): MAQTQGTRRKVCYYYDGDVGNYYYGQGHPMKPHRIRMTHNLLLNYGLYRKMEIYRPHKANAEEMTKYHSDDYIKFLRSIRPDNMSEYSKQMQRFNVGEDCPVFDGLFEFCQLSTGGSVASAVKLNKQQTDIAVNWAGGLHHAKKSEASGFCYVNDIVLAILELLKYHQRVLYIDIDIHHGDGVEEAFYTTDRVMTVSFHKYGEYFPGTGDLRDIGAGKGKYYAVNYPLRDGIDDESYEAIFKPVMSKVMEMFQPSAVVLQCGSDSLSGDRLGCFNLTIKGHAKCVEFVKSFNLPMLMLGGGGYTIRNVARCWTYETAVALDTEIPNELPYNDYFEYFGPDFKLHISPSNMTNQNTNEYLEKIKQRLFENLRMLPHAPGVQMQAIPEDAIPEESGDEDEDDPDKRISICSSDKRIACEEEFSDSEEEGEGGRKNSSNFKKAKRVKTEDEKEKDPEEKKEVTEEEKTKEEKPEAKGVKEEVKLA

One may read the IC50 as the point on the concentration scale where inhibition reaches its midpoint. Read a low IC50 as greater potency in that assay. Turning to `CC1(C)NC(=O)[C@H](CCCCCC=O)NC(=O)[C@H]2CCCN2C(=O)[C@H](Cc2ccccc2)NC1=O` [6-[(3S,9S,14aR)-9-benzyl-6,6-dimethyl-1,4,7,10-tetraoxo-tetradecahydropyrrolo[1,2-a][,,,]cyclododecan-3-yl]hexanal], the IC50 in assay [1] is 4.33 µM; in assay [2], 1.29 µM; in assay [3], 14.1 µM.

`CC1(C)NC(=O)[C@H](CCCCCC(O)CO)NC(=O)[C@H]2CCCN2C(=O)[C@H](Cc2ccccc2)NC1=O` (stereo partly drawn) [(3S,9S,14aR)-9-benzyl-3-(6,7-dihydroxyheptyl)-6,6-dimethyl-tetradecahydropyrrolo[1,2-a][,,,]cyclododecane-1,4,7,10-tetrone]: the 50% inhibitory concentration (IC50) in assay [1], in assay [2] and in assay [3] was > 100 µM in each case.

In assay [2], `CC1(C)NC(=O)[C@H](CCCCCC(=O)CBr)NC(=O)[C@H]2CCCN2C(=O)[C@H](Cc2ccccc2)NC1=O` [(3S,9S,14aR)-9-benzyl-3-(7-bromo-6-oxoheptyl)-6,6-dimethyl-tetradecahydropyrrolo[1,2-a][,,,]cyclododecane-1,4,7,10-tetrone] displayed an IC50 of 0.0595 µM.

For `CC1(C)NC(=O)[C@H](CCCCCC(=O)CO)NC(=O)[C@H]2CCCN2C(=O)[C@H](Cc2ccccc2)NC1=O` [(3S,9S,14aR)-9-benzyl-3-(7-hydroxy-6-oxoheptyl)-6,6-dimethyl-tetradecahydropyrrolo[1,2-a][,,,]cyclododecane-1,4,7,10-tetrone], the IC50 stood at 0.223 µM in assay [1], 0.0604 µM in assay [2] and 0.887 µM in assay [3].

With `C=CCCCCC[C@@H]1NC(=O)[C@H]2CCCN2C(=O)[C@H](Cc2ccccc2)NC(=O)C(C)(C)NC1=O` [(3S,9S,14aR)-9-benzyl-3-(hept-6-en-1-yl)-6,6-dimethyl-tetradecahydropyrrolo[1,2-a][,,,]cyclododecane-1,4,7,10-tetrone] (HELM PEPTIDE1{[Aib].F.[dP].[C=CCCCCC[C@H](N[*:1])C(=O)[*:2]]}$PEPTIDE1,PEPTIDE1,1:R1-4:R2$$$V2.0), the IC50 in assay [1], in assay [2] and in assay [3] was > 100 µM each time.

For the molecule `CC(=O)CCCCC[C@@H]1NC(=O)[C@H]2CCCN2C(=O)[C@H](Cc2ccccc2)NC(=O)C(C)(C)NC1=O` [(3S,9S,14aR)-9-benzyl-6,6-dimethyl-3-(6-oxoheptyl)-tetradecahydropyrrolo[1,2-a][,,,]cyclododecane-1,4,7,10-tetrone], the IC50 in assay [1] amounted to 1.08 µM; in assay [2], 0.29 µM; in assay [3], 3.7 µM.

Consider `CC1(C)NC(=O)[C@H](CCCCCC2CO2)NC(=O)[C@H]2CCCN2C(=O)[C@H](Cc2ccccc2)NC1=O` (stereo partly drawn) [(3S,9S,14aR)-9-benzyl-6,6-dimethyl-3-[5-(oxiran-2-yl)pentyl]-tetradecahydropyrrolo[1,2-a][,,,]cyclododecane-1,4,7,10-tetrone], for which the half-maximal inhibitory concentration (IC50) in assay [1] is 4.69 µM; in assay [2], 4.05 µM; in assay [3], > 100 µM.

The values are drawn from BindingDB's records for doi:10.1016/j.bmc.2005.12.063 (Kyushu Institute of Technology, 2006).
